In this experiment the target is T1, recombinant caspase 3 (Homo sapiens, UniProt P42574).
T1 construct: His tag (C); made in house; host or cells: E. coli
T1 sequence (P42574 29-175 limits assumed): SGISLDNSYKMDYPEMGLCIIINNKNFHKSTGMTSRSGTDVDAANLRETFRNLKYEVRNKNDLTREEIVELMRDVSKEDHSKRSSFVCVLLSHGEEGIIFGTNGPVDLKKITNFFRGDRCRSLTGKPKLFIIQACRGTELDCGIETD
T1 sequence (P42574 176-277 limits assumed): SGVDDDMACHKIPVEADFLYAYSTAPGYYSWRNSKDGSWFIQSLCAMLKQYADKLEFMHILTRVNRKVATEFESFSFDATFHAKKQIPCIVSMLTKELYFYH
As to the kind of experiment: Caspase 3 Inhibition Assay (Ac-DEVD-AFC fluorogenic substrate cleavage). Type of experiment: biochemical. The following applies: pH 7.2, 23° C.; for IC50: recombinant caspase 3 0.25 nM, Ac-DEVD-AFC 25 μM; for inhibition at 50 µM: @ 50 μM compound, recombinant caspase 3, Ac-DEVD-AFC 25 μM, read-out: percent inhibition at the highest compound concentration. On the procedure:
Caspase 3 was expressed intracellularly in E. coli with a c-terminal His tag. Fermentation was performed at 25° C. in a B. Braun Biotech Biostat C 10 liter bioreactor vessel. The culture was collected in IL bottles and centrifuged in Komspin KA-7.1000 rotors at approximately 8000 RCF (Relative Centrifugal Force). The cell pellets were re-suspended in 20 mM Tris pH 8.0, 500 mM NaCl, and 5 mM imidazole. The cell suspension was disrupted by passing 5 times through a microfluidizer Model 110Y (Microfluidics Corp, Newton, Mass). After centrifugation (13 kg, 30 min at 4 C), the supernatant was applied to a column of Nickle-NTA agarose. The Caspase 3 was eluted with a gradient of 5 mM to 150 mM imidazole in the above buffer. Fractions containing Caspase 3 were pooled and concentrated with a Millipore Ultrafree filtration device. The concentrated Caspase 3 solution was loaded unto a TSK gel G3000sw column (Tosoh Bioseph LLC), equilibrated with a buffer of 20 mM PIPES pH 7.2, 100 mM NaCl, 1 mM EDTA & 5 mM Cysteine. Fractions containing Caspase 3 were pooled and concentrated. Sometimes CHAPS was added to 0.1% and sucrose to 10% into the protein sample.
Caspase 3 was assayed at 23° C. (room temp) in 96-well plates using the internally quenched tetrapeptide substrate N-acetyl-aspartyl-glutamyl-valyl-aspartate-7-amino-4-trifluoromethyl coumarin (Ac-DEVD-AFC purchased from Biomol). The assays are conducted at pH 7.2 in a buffered system containing 20 mM PIPES, 100 mM NaCl, 1 mM EDTA, 0.1% CHAPS, 10% sucrose and 5 mM L-cysteine. […] A steady state rate of substrate cleavage is obtained for analysis.
The progress curves generated were fitted by computer to equation 1 to generate an IC50 value. Equation 1: y=Bmax*(1−(x^n/(K^n+x^n))), where Bmax is rate in the absence of inhibitor.

With `CC1(C)CN=C2C(=O)c3cc(NS(=O)(=O)c4cccc(Br)c4)ccc3N2C1` [Example 50, 3-Bromo-N-(3,3-dimethyl-10-oxo-2,3,4,10-tetrahydropyrimido[1,2-a]indol-8-yl)benzenesulfonamide], the IC50 (usually the concentration that gives 50% inhibition) is 23.4 nM.
With `COc1ccc2c(c1)C(=O)C1=NCCCN12` [Example 11, 8-Methoxy-3,4-dihydropyrimido[1,2-a]indol-10(2H)-one], the inhibition at 50 µM was found to be 9%.
As for `CC1(C)CN=C2C(=O)c3cc(NS(=O)(=O)c4ccc(Cl)c(Cl)c4)ccc3N2C1` [Example 53, 3,4-Dichloro-N-(3,3-dimethyl-10-oxo-2,3,4,10-tetrahydropyrimido[1,2-a]indol-8-yl)benzenesulfonamide], the IC50 turned out to be 233 nM.
On the same count and under the same terms, in the case of `CC1(C)CN=C2C(=O)c3cc(NS(=O)(=O)c4ccc(F)c(Cl)c4)ccc3N2C1` [Example 52, 3-Chloro-N-(3,3-dimethyl-10-oxo-2,3,4,10-tetrahydropyrimido[1,2-a]indol-8-yl)-4-fluorobenzenesulfonamide] it was 285 nM.
Turning to `CN1CCN(C[C@@H]2CCCN2S(=O)(=O)c2ccc3c(c2)C(=O)C2=NCC4(CCCC4)CN23)CC1` [Example 84, 8′-({(2S)-2-[(4-Methylpiperazin-1-yl)methyl]pyrrolidin-1-yl}sulfonyl)spiro[cyclopentane-1,3′-pyrimido[1,2-a]indol]-10′(2′H)-one], the IC50 stood at 30 nM.
For the compound `CC1(C)CN=C2C(=O)c3cc(C(=O)N4CCCCC4)ccc3N2C1` [Example 79, 3,3-Dimethyl-8-(piperidin-1-ylcarbonyl)-3,4-dihydropyrimido[1,2-a]indol-10(2H)-one], the IC50 is 21000 nM.
With `CC1(C)CN=C2C(=O)c3cc(C(=O)NC4CCCC4)ccc3N2C1` [Example 77, N-Cyclopentyl-3,3-dimethyl-10-oxo-2,3,4,10-tetrahydropyrimido[1,2-a]indole-8-carboxamide], the concentration for half-maximal inhibition (IC50) came to 35000 nM.
For the compound `CC1(C)CN=C2C(=O)c3cc(C(=O)N4CCc5ccccc54)ccc3N2C1` [Example 80, 8-(2,3-Dihydro-1H-indol-1-ylcarbonyl)-3,3-dimethyl-3,4-dihydropyrimido[1,2-a]indol-10(2H)-one], the inhibition at 50 µM was found to be 46%.
For `COC[C@@H]1CCCN1S(=O)(=O)c1ccc2c(c1)C(=O)C1=NCC3(CCCCCC3)CN12` [85/86, 8′-{[(2S)-2-(methoxymethyl)pyrrolidin-1-yl]sulfonyl}spiro[cycloheptane-1,3′-pyrimido[1,2-a]indol]-10′(2′H)-one], the IC50 came to 45 nM.
Same read-out and setting: in the case of `Cc1ccc(OC[C@@H]2CCCN2S(=O)(=O)c2ccc3c(c2)C(=O)C2=NCC(C)(C)CN23)cc1` [Example 24, 3,3-Dimethyl-8-({(2S)-2-[(4-methylphenoxy)methyl]pyrrolidin-1-yl}sulfonyl)-3,4-dihydropyrimido[1,2-a]indol-10(2H)-one] it was 49 nM.
As to `CC(=O)N1CCN(C(=O)c2ccc3c(c2)C(=O)C2=NCC(C)(C)CN23)CC1` [Example 82, 8-[(4-Acetylpiperazin-1-yl)carbonyl]-3,3-dimethyl-3,4-dihydropyrimido[1,2-a]indol-10(2H)-one], the inhibition at 50 µM amounted to 28%.
In the case of `CC1(C)CN=C2C(=O)c3cc(NS(=O)(=O)c4cc(C(F)(F)F)cc(C(F)(F)F)c4)ccc3N2C1` [Example 62, N-(3,3-Dimethyl-10-oxo-2,3,4,10-tetrahydropyrimido[1,2-a]indol-8-yl)-3,5-bis(trifluoromethyl)benzenesulfonamide], the IC50 was 3140 nM.
On to `O=C1C2=NCCCN2c2cc(Cl)c([N+](=O)[O-])cc21` [Example 15, 7-Chloro-8-nitro-3,4-dihydropyrimido[1,2-a]indol-10(2H)-one], for which the IC50 amounted to 4590 nM.
For `CC1(C)CN=C2C(=O)c3cc(S(=O)(=O)N4c5ccccc5C[C@H]4COc4ccccc4)ccc3N2C1` [Example 34, 3,3-Dimethyl-8-{[(2S)-2-(phenoxymethyl)-2,3-dihydro-1H-indol-1-yl]sulfonyl}-3,4-dihydropyrimido[1,2-a]indol-10(2H)-one], the IC50 was determined as 1210 nM.
With `CC1(C)CN=C2C(=O)c3cc(C(=O)N4CCCC4)ccc3N2C1` [Example 78, 3,3-Dimethyl-8-(pyrrolidin-1-ylcarbonyl)-3,4-dihydropyrimido[1,2-a]indol-10(2H)-one], the inhibition at 50 µM was found to be 37%.
As to `CC1(C)CN=C2C(=O)c3cc(S(=O)(=O)N4CCC[C@H]4COc4ccc(C(F)(F)F)cn4)ccc3N2C1` [Example 42, 3,3-Dimethyl-8-{[(2S)-2-({[5-(trifluoromethyl)pyridin-2-yl]oxy}methyl)pyrrolidin-1-yl]sulfonyl}-3,4-dihydropyrimido[1,2-a]indol-10(2H)-one], the IC50 is 14 nM.
In the case of `CN1CCN(C(=O)c2ccc3c(c2)C(=O)C2=NCC(C)(C)CN23)CC1` [Example 81, 3,3-Dimethyl-8-[(4-methylpiperazin-1-yl)carbonyl]-3,4-dihydropyrimido[1,2-a]indol-10(2H)-one], the inhibition at 50 µM came out at 29%.
Regarding `CC1(C)CN=C2C(=O)c3cc(C#N)ccc3N2C1` [Example 20, 3,3-Dimethyl-10-oxo-2,3,4,10-tetrahydropyrimido[1,2-a]indole-8-carbonitrile], the IC50 amounted to 99 nM.
For the compound `Cc1ccc(OC[C@@H]2CCCN2S(=O)(=O)c2ccc3c(c2)C(=O)C2=NCC(C)(C)CN23)c(Cl)c1` [Example 26, 8-({(2S)-2-[(2-Chloro-4-methylphenoxy)methyl]pyrrolidin-1-yl}sulfonyl)-3,3-dimethyl-3,4-dihydropyrimido[1,2-a]indol-10(2H)-one], the IC50 stood at 98 nM.
As for `Cc1ccc(S(=O)(=O)Nc2ccc3c(c2)C(=O)C2=NCC(C)(C)CN23)cc1` [Example 51, N-(3,3-Dimethyl-10-oxo-2,3,4,10-tetrahydropyrimido[1,2-a]indol-8-yl)-4-methylbenzenesulfonamide], the IC50 came out at 714 nM.
Still for that read-out and setting: the result for `CC(=O)c1ccc(OC[C@@H]2CCCN2S(=O)(=O)c2ccc3c(c2)C(=O)C2=NCC(C)(C)CN23)c(C)c1` [Example 27, 8-({(2S)-2-[(4-Acetyl-2-methylphenoxy)methyl]pyrrolidin-1-yl}sulfonyl)-3,3-dimethyl-3,4-dihydropyrimido[1,2-a]indol-10(2H)-one] reads 55 nM; that for `CC1(C)CN=C2C(=O)c3cc(S(=O)(=O)N4CCC[C@H]4COc4cccc(C(F)(F)F)c4)ccc3N2C1` [Example 31, 3,3-Dimethyl-8-[((2S)-2-{[3-(trifluoromethyl)phenoxy]methyl}pyrrolidin-1-yl)sulfonyl]-3,4-dihydropyrimido[1,2-a]indol-10(2H)-one], 45 nM.
Consider `CC1(C)CN=C2C(=O)c3cc(S(=O)(=O)N4CCC[C@H]4COc4cccnc4Br)ccc3N2C1` [Example 35, 8-[((2S)-2-{[(2-Bromopyridin-3-yl)oxy]methyl}pyrrolidin-1-yl)sulfonyl]-3,3-dimethyl-3,4-dihydropyrimido[1,2-a]indol-10(2H)-one], for which the inhibition at 50 µM was determined as 26%.
Turning to `CC1(C)CN=C2C(=O)c3cc(S(=O)(=O)N4CCC[C@H]4COc4cccnc4Cl)ccc3N2C1` [Example 43, 8-[((2S)-2-{[(2-Chloropyridin-3-yl)oxy]methyl}pyrrolidin-1-yl)sulfonyl]-3,3-dimethyl-3,4-dihydropyrimido[1,2-a]indol-10(2H)-one], the IC50 turned out to be 7 nM.
Still for that read-out and setting: the result for `Cc1ccc(OC[C@@H]2CCCN2S(=O)(=O)c2ccc3c(c2)C(=O)C2=NCC(C)(C)CN23)c(I)n1` [Example 46, 8-[((2S)-2-{[(2-Iodo-6-methylpyridin-3-yl)oxy]methyl}pyrrolidin-1-yl)sulfonyl]-3,3-dimethyl-3,4-dihydropyrimido[1,2-a]indol-10(2H)-one] reads 17 nM; that for `Cc1ccc(OC[C@@H]2CCCN2S(=O)(=O)c2ccc3c(c2)C(=O)C2=NCC(C)(C)CN23)cn1` [Example 44, 3,3-Dimethyl-8-[((2S)-2-{[(6-methylpyridin-3-yl)oxy]methyl}pyrrolidin-1-yl)sulfonyl]-3,4-dihydropyrimido[1,2-a]indol-10(2H)-one], 19 nM.
For `CC1(C)CN=C2C(=O)c3cc(S(=O)(=O)N4CCC[C@H]4COc4cccc(Cl)n4)ccc3N2C1` [Example 40, 8-[((2S)-2-{[(6-Chloropyridin-2-yl)oxy]methyl}pyrrolidin-1-yl)sulfonyl]-3,3-dimethyl-3,4-dihydropyrimido[1,2-a]indol-10(2H)-one], the IC50 is 5 nM.

The record behind these values is patent publication US7256198B2, “Pyrimidoindolones and methods for using same” (Wyeth, priority 2004, dated 2007).
